According to patent US12013390B2, “EBIV nucleic acid composition and application thereof” (Wuhan Institute of Virology, Chinese Academy of Sciences, priority 2022, dated 2024):

System: BHK-21 cells
Experiment: Cell viability per well (percentage of cells remaining) observed under a microscope in the drug screening test
Assay type: cell-based, hamster
Settings: infected BHK-21 cells with drug, 36 hours
Method: (1) A 96-well plate for BHK-21 cells was prepared. The cells were planked at 10^4 cells/well. The plate was cultured in a cell incubator with a temperature of 37° C. and a CO2 concentration of 5%. The drug screening test was conducted when the cells grew to 40-50%. The drug to be tested was dissolved in dimethyl sulfoxide. Then the drug was diluted to 100 μM with DMEM medium containing 2% FBS. After that, the drug was subjected to serial 2-fold dilution to obtain the dilution gradient with the concentration of 100 μM, 50 μM, 25 μM, 12.5 μM, 6.25 μM, 3.125 μM, and 1.5625 μM, respectively (the concentration of DMSO in the diluted drug shall be <0.1%).
(2) The original culture medium was removed from the 96-well plate. The virus was inoculated into the 96-well plate at an MOI of 0.01 and a volume of 100 μL/well. At the same time, the diluted drugs to be tested were respectively added into the same 96-well plate at 100 μL/well and mixed well with the virus solution. The plate was incubated in a cell incubator with a temperature of 37° C. and a CO2 concentration of 5% for 36 hours before detection.
(4) Cell viability per well (and the percentage of cells remaining per well) was observed under a microscope and the half-maximal effect concentration (EC50) of the drug was calculated using GraphPad Prism 9 software and an EC50 graph was plotted.

Molecule | Cell viability [%] | other results
C[C@H](CCC(=O)O)[C@H]1CC[C@H]2[C@@H]3[C@H](O)C[C@@H]4C[C@H](O)CC[C@]4(C)[C@H]3CC[C@]12C [Chenodeoxycholic acid, reference compound] | 70 | 
CC(C)=CCc1cc2c(cc1O)oc(=O)c1c3ccc(O)cc3oc21 [Psoralidin] | 50 | 
CC(C)=CCC(OC(=O)C=C(C)C)C1=CC(=O)c2c(O)ccc(O)c2C1=O (stereo not drawn) [Beta, beta-dimethyl acryl shikonin] | 70 | 
C[C@@]12C(=O)OC(=O)[C@]1(C)[C@H]1CC[C@@H]2O1 [Cantharidin] | 50 | 
C=C[C@H]1[C@H](O[C@@H]2O[C@H](CO)[C@@H](O)[C@H](O)[C@H]2O)OC=C(C(=O)OC)[C@H]1CC(=O)O [Secoxyloganin] | 100 | Cell viability (listed as secoxyloganin): 100%
CC(C)=CCc1c(O)ccc(C(=O)/C=C/c2ccc(O)cc2)c1O [Isobavachalcone] | 30 | 
Clinodiside Aogenin A | 100 | Cell viability (listed as clinodiside A): 100%
COc1ccc(-c2cc(=O)c3c(O)cc(O[C@@H]4O[C@H](CO[C@@H]5O[C@@H](C)[C@H](O)[C@@H](O)[C@H]5O)[C@@H](O)[C@H](O)[C@H]4O)cc3o2)cc1O [Diosmin, reference compound] | 100 | Cell viability (listed as diosmin): 100%
Oc1cc(O)c2c(c1)O[C@H](c1cc(O)c(O)c(O)c1)[C@H](O)C2 [Epigallocatechol] | 0 | 
